Assay results published in publication PMC12010937, “Evaluation of FXR Activity in Pollutants Identified in Sewage Sludge and Subsequent in Vitro and in Vivo Characterization of Metabolic Effects of Triphenyl Phosphate” (Environmental Health Perspectives, 2025).
Where “and” joins values, the source holds several entries; their conditions need not be identical. Equal entries are not always repeated.

How the values were obtained:
C57BL/6N mice = assay: Serum ALT and AST activities; assay type: in vivo; details: for Serum ALT activity / Serum AST activity: individual mice
Description: (§1) Male C57BL/6N mice (8 wk of age) were purchased from Beijing Vital River Laboratory Inc. and acclimated to the environment for 2 wk before they were used for experiments. The environment was maintained at 22°C, in a 12-h light/dark cycle with 50%–60% relative humidity and fed standard chow diets. Because the male mice are more sensitive to metabolic disease than female mice and the estrous cycle of female mice may induce variability to the metabolic phenotypes,[50] only male mice were used in this study. Animals were randomly assigned to control or TPHP treatment groups (five mice per group). Mice were exposed to corn oil (control) purchased from Sigma-Aldrich (C8267) or TPHP (dissolved in corn oil) at 10mg/kg or 50mg/kg body weight (BW) by daily oral gavage for 35 d. The administered volume was 5mL/kg BW. The TPHP corn oil solutions for administration were prepared by dissolving the TPHP in corn oil, and the solutions were stored at −20°C and freshly prepared each week. BW was measured every other day during the dosing period. At the end of experiments, the mice were anesthetized with isoflurane, then blood was collected from the retro-orbital sinus via orbital puncture, and then the mice were euthanized by cervical dislocation. The liver was isolated, weighted, and divided into three fractions: one fraction was fixed with 4% neutral-buffered formalin for Oil Red staining; another fraction was frozen in liquid nitrogen and stored at −80°C for the BA targeted analysis, lipidomic analysis, and qPCR analysis; the remaining fraction was embedded with 3% carboxymethylcellulose (CMC) for MSI analysis. The ileum was also isolated, weighted, and stored at −80°C for the BA targeted analysis and qRT-PCR analysis. Cecal contents were collected from the cecum of mice for the 16S rRNA gene sequencing analysis. Animal study protocols were approved by the Animal Care and Use Committee of Peking University (approval number: Urban-WanY-1).
Blood samples collected from the mice were incubated in a 37°C water bath for 30 min and then incubated under 4°C for 5 h. After centrifuged at 5,000×g and 4°C for 5 min, the serums were aliquoted and stored at −80°C . The determination of serum alanine transaminase (ALT) and aspartate transaminase (AST) activities in the serum were determined using the commercial kits (E2021, E2023; Applygen).

[1] = Body weight during exposure; assay type: in vivo, C57BL/6N mice; details: for Relative body weight / Body weight: individual mice
Description: as §1

[2] = test system: FXR target genes and ceramide synthesis genes in ileum; assay: qPCR of genes in mouse ileum; assay type: in vivo, C57BL/6N mice
Description: as §1
Total RNA was extracted from cells or mice tissues (liver and ileum) using the Total RNA kit (Tiangen Biotech), and concentration and quality of the RNA were determined using a SMA4000 Nanodrop spectrophotometer (Merinton). Then, the RNA was reverse transcribed into cDNA by HiScript III RT SuperMix for qPCR (Vazyme). In addition, qPCR was performed in the Mx3005P real-time PCR system (Agilent Technologies) with the ChamQ SYBR qPCR Master Mix Kit (Vazyme). Reactions were carried out for 5 min at 95°C, followed by 40 cycles of two-step PCR for 10 s at 95°C and 30 s at 60°C. The relative RNA expression levels of the target genes were normalized to GAPDH using the 2^−ΔΔCt method.

[3] = TPHP-H: 50 mg/kg daily oral gavage 35 d
[4] = TPHP-L: 10 mg/kg daily oral gavage 35 d

O=P(Oc1ccccc1)(Oc1ccccc1)Oc1ccccc1 [TPHP, triphenyl phosphate]
Serum ALT vs control group (in words) (C57BL/6N mice; TPHP exposure groups): significantly higher
Serum AST vs control group (in words) (C57BL/6N mice; TPHP exposure groups): higher
Serum ALT activity (C57BL/6N mice; [3]): 14.85 and 21.35 and 16.29
Serum AST activity (C57BL/6N mice; [3]): 72.41 and 61.71 and 102.89
Serum ALT activity (C57BL/6N mice; [4]): 15.83 and 17.21 and 25.56
Serum AST activity (C57BL/6N mice; [4]): 84.28 and 74.46 and 60.21
Body weight vs control group (in words) ([1]; TPHP-L and TPHP-H groups, last week of 35 d exposure): significantly high BW
Relative body weight ([1]; day0, TPHP-H group): 100%
Relative body weight ([1]; day0, TPHP-L group): 100%
Relative body weight ([1]; day2, TPHP-H group): 100.00% and 95.33% and 100.77% and 93.99% and 94.87%
Relative body weight ([1]; day2, TPHP-L group): 100.70% and 96.31% and 97.06% and 97.18% and 97.32%
Relative body weight ([1]; day4, TPHP-H group): 97.19% and 93.33% and 101.54% and 92.93% and 92.67%
Relative body weight ([1]; day4, TPHP-L group): 97.89% and 93.62% and 95.96% and 97.58% and 94.25%
Relative body weight ([1]; day6, TPHP-H group): 97.59% and 92.00% and 101.92% and 90.46% and 91.58%
Relative body weight ([1]; day6, TPHP-L group): 98.24% and 94.30% and 94.12% and 97.18% and 94.25%
Relative body weight ([1]; day8, TPHP-H group): 98.39% and 93.00% and 103.85% and 92.23% and 93.41%
Relative body weight ([1]; day8, TPHP-L group): 98.59% and 94.30% and 95.59% and 96.37% and 95.40%
Relative body weight ([1]; day10, TPHP-H group): 98.39% and 92.67% (2×) and 103.85% and 90.46%
Relative body weight ([1]; day10, TPHP-L group): 98.24% and 94.30% and 95.59% and 95.97% and 94.25%
Body weight ([1]; day12, TPHP-H group): 24.8 g and 28.9 g and 27.4 g and 26.1 g (2×)
Relative body weight ([1]; day12, TPHP-H group): 99.60% and 96.33% and 105.38% and 92.23% and 95.60%
Body weight ([1]; day12, TPHP-L group): 28.0 g and 28.2 g and 26.3 g and 24.2 g and 24.9 g
Relative body weight ([1]; day12, TPHP-L group): 98.59% and 94.63% and 96.69% and 97.58% and 95.40%
Body weight ([1]; day14, TPHP-H group): 24.9 g and 29.3 g and 27.7 g and 25.9 g and 26.3 g
Relative body weight ([1]; day14, TPHP-H group): 100.00% and 97.67% and 106.54% and 91.52% and 96.34%
Body weight ([1]; day14, TPHP-L group): 28.7 g and 28.5 g and 26.4 g and 23.8 g and 25.1 g
Relative body weight ([1]; day14, TPHP-L group): 101.06% and 95.64% and 97.06% and 95.97% and 96.17%
Body weight ([1]; day16, TPHP-H group): 25.2 g and 29.6 g and 28.2 g and 26.6 g and 26.7 g
Relative body weight ([1]; day16, TPHP-H group): 101.20% and 98.67% and 108.46% and 93.99% and 97.80%
Body weight ([1]; day16, TPHP-L group): 28.9 g (2×) and 27.2 g and 24.0 g and 25.4 g
Relative body weight ([1]; day16, TPHP-L group): 101.76% and 96.98% and 100.00% and 96.77% and 97.32%
Body weight ([1]; day18, TPHP-H group): 25.6 g and 30.6 g and 28.3 g and 26.9 g and 27.4 g
Relative body weight ([1]; day18, TPHP-H group): 102.81% and 102.00% and 108.85% and 95.05% and 100.37%
Body weight ([1]; day18, TPHP-L group): 29.0 g and 29.3 g and 27.4 g and 24.4 g and 25.6 g
Relative body weight ([1]; day18, TPHP-L group): 102.11% and 98.32% and 100.74% and 98.39% and 98.08%
Body weight ([1]; day20, TPHP-H group): 25.6 g and 30.4 g and 28.2 g and 27.6 g (2×)
Body weight ([1]; day20, TPHP-L group): 29.6 g and 30.1 g and 27.7 g and 25.0 g and 26.0 g
Body weight ([1]; day22, TPHP-H group): 25.7 g and 30.4 g and 27.7 g and 27.6 g and 28.0 g
Body weight ([1]; day22, TPHP-L group): 29.5 g and 29.1 g and 27.8 g and 25.2 g and 26.1 g
Body weight ([1]; day24, TPHP-H group): 26.2 g and 30.9 g and 27.9 g and 28.0 g and 28.4 g
Body weight ([1]; day24, TPHP-L group): 29.9 g and 30.1 g and 28.1 g and 25.1 g and 26.4 g
Body weight ([1]; day26, TPHP-H group): 26.8 g and 31.6 g and 28.0 g and 27.8 g and 28.5 g
Body weight ([1]; day26, TPHP-L group): 30.2 g and 31.0 g and 28.7 g and 25.9 g and 26.7 g
Body weight ([1]; day28, TPHP-H group): 27.0 g and 31.6 g and 27.9 g and 28.1 g and 28.9 g
Body weight ([1]; day28, TPHP-L group): 30.1 g and 31.3 g and 28.7 g and 25.4 g and 26.8 g
Body weight ([1]; day30, TPHP-H group): 27.3 g and 32.3 g and 28.7 g and 28.3 g and 29.8 g
Body weight ([1]; day30, TPHP-L group): 29.9 g and 31.6 g and 29.4 g and 26.2 g and 27.1 g
Relative mRNA expression of Asbt in ileum ([2]; TPHP-H: 50 mg/kg, 35 d): 1.65 fold changes and 1.26 fold changes and 1.68 fold changes
Relative mRNA expression of Cers2 in ileum ([2]; TPHP-H: 50 mg/kg, 35 d): 0.89 fold changes and 1.24 fold changes and 1.27 fold changes
Relative mRNA expression of Cers4 in ileum ([2]; TPHP-H: 50 mg/kg, 35 d): 1.11 fold changes and 0.99 fold changes and 1.05 fold changes
Relative mRNA expression of Cers6 in ileum ([2]; TPHP-H: 50 mg/kg, 35 d): 0.73 fold changes and 1.06 fold changes and 0.97 fold changes
Relative mRNA expression of Degs1 in ileum ([2]; TPHP-H: 50 mg/kg, 35 d): 0.95 fold changes and 0.99 fold changes and 1.02 fold changes
Relative mRNA expression of Degs2 in ileum ([2]; TPHP-H: 50 mg/kg, 35 d): 1.14 fold changes and 1.06 fold changes and 1.21 fold changes
Relative mRNA expression of Ibabp in ileum ([2]; TPHP-H: 50 mg/kg, 35 d): 0.78 fold changes and 0.85 fold changes and 0.92 fold changes
Relative mRNA expression of Ostα in ileum ([2]; TPHP-H: 50 mg/kg, 35 d): 0.84 fold changes and 0.68 fold changes and 0.79 fold changes
Relative mRNA expression of Shp in ileum ([2]; TPHP-H: 50 mg/kg, 35 d): 0.10 fold changes and 0.18 fold changes and 0.19 fold changes
Relative mRNA expression of Smpd2 in ileum ([2]; TPHP-H: 50 mg/kg, 35 d): 1.21 fold changes and 1.23 fold changes and 0.91 fold changes
Relative mRNA expression of Smpd3 in ileum ([2]; TPHP-H: 50 mg/kg, 35 d): 0.99 fold changes and 0.93 fold changes and 1.32 fold changes
Relative mRNA expression of Smpd4 in ileum ([2]; TPHP-H: 50 mg/kg, 35 d): 0.86 fold changes and 0.81 fold changes and 0.93 fold changes
Relative mRNA expression of Sptlc1 in ileum ([2]; TPHP-H: 50 mg/kg, 35 d): 1.12 fold changes and 0.98 fold changes and 0.80 fold changes
Relative mRNA expression of Sptlc2 in ileum ([2]; TPHP-H: 50 mg/kg, 35 d): 1.09 fold changes and 1.01 fold changes and 0.85 fold changes
Relative mRNA expression of Asbt in ileum ([2]; TPHP-L: 10 mg/kg, 35 d): 1.43 fold changes and 1.04 fold changes and 1.42 fold changes
Relative mRNA expression of Cers2 in ileum ([2]; TPHP-L: 10 mg/kg, 35 d): 1.06 fold changes and 1.32 fold changes and 1.08 fold changes
Relative mRNA expression of Cers4 in ileum ([2]; TPHP-L: 10 mg/kg, 35 d): 1.04 fold changes and 1.11 fold changes and 1.40 fold changes
Relative mRNA expression of Cers6 in ileum ([2]; TPHP-L: 10 mg/kg, 35 d): 0.77 fold changes and 1.22 fold changes and 1.15 fold changes
Relative mRNA expression of Degs1 in ileum ([2]; TPHP-L: 10 mg/kg, 35 d): 1.06 fold changes and 1.19 fold changes and 1.18 fold changes
Relative mRNA expression of Degs2 in ileum ([2]; TPHP-L: 10 mg/kg, 35 d): 1.13 fold changes and 0.96 fold changes and 1.41 fold changes
Relative mRNA expression of Fgf15 in ileum ([2]; TPHP-L: 10 mg/kg, 35 d): 0.80 fold changes and 0.54 fold changes and 0.50 fold changes
Relative mRNA expression of Ibabp in ileum ([2]; TPHP-L: 10 mg/kg, 35 d): 0.79 fold changes and 0.87 fold changes and 0.75 fold changes
Relative mRNA expression of Ostα in ileum ([2]; TPHP-L: 10 mg/kg, 35 d): 0.81 fold changes and 0.96 fold changes and 0.82 fold changes
Relative mRNA expression of Shp in ileum ([2]; TPHP-L: 10 mg/kg, 35 d): 0.33 fold changes and 0.38 fold changes and 0.36 fold changes
Relative mRNA expression of Smpd2 in ileum ([2]; TPHP-L: 10 mg/kg, 35 d): 1.01 fold changes and 1.00 fold changes and 1.07 fold changes
Relative mRNA expression of Smpd3 in ileum ([2]; TPHP-L: 10 mg/kg, 35 d): 1.11 fold changes and 1.07 fold changes and 1.10 fold changes
Relative mRNA expression of Smpd4 in ileum ([2]; TPHP-L: 10 mg/kg, 35 d): 0.84 fold changes and 0.96 fold changes
Relative mRNA expression of Sptlc1 in ileum ([2]; TPHP-L: 10 mg/kg, 35 d): 0.87 fold changes and 1.15 fold changes and 0.75 fold changes
Relative mRNA expression of Sptlc2 in ileum ([2]; TPHP-L: 10 mg/kg, 35 d): 0.89 fold changes and 1.15 fold changes and 1.13 fold changes
Expression of ceramide synthesis genes in the ileum vs control (in words) ([2]; after TPHP exposure): not significantly different
